Molecules are shown by their SMILES. Calls of active or inactive are those of the source. The calls are words filed in the database; no cut-off is given here.

Test [1] deals with Aorta. In words: Vasorelaxant activity in endothelium-denuded Wistar rat thoracic aortic ring assessed as inhibition of phenylephrine-induced contraction at 200 uM. Format: functional.
The subject of test [2] is Aorta. The experiment in a line: Vasorelaxant activity in endothelium-intact Wistar rat thoracic aortic ring assessed as inhibition of phenylephrine-induced contraction at 200 uM. In kind it is functional.
The test system of test [3] is Aorta. In words: Vasorelaxant activity in endothelium-intact Wistar rat thoracic aortic ring assessed as inhibition of phenylephrine-induced contraction. In kind it is functional, tissue-based.
For test [4], the system named is Aorta. The experiment in a line: Vasorelaxant activity in endothelium-denuded Wistar rat thoracic aortic ring assessed as inhibition of phenylephrine-induced contraction. In kind it is functional, tissue-based.
In test [5] the target is cGMP-dependent 3',5'-cyclic phosphodiesterase (Homo sapiens) (UniProt O00408). The experiment in a line: Inhibition of PDE2A up to 30 uM.
Test [6] concerns the target T1, 3',5'-cyclic-AMP phosphodiesterase 4B (Homo sapiens, UniProt Q07343). The experiment in a line: Inhibition of PDE4B up to 30 uM.
Test [7] concerns the target cGMP-specific 3',5'-cyclic phosphodiesterase (Homo sapiens) (UniProt O76074). The experiment in a line: Inhibition of PDE5 up to 30 uM.
The test system of test [8] is Aorta. In words: Vasorelaxant activity in endothelium-denuded Wistar rat thoracic aortic ring assessed as inhibition of phenylephrine-induced contraction at 100 uM. Format: functional.
Test [9] deals with Aorta. The experiment in a line: Vasorelaxant activity in endothelium-intact Wistar rat thoracic aortic ring assessed as inhibition of phenylephrine-induced contraction at 500 uM. In kind it is functional.
Test [10] deals with Aorta. The experiment in a line: Vasorelaxant activity in endothelium-denuded Wistar rat thoracic aortic ring assessed as inhibition of phenylephrine-induced contraction at 500 uM. Format: functional.
In test [11] the target is T1, 3',5'-cyclic-AMP phosphodiesterase 4B. The experiment in a line: Inhibition of PDE4B.
Test [12] concerns Aorta. The experiment in a line: Vasorelaxant activity in endothelium-intact Wistar rat thoracic aortic ring assessed as complete inhibition of phenylephrine-induced contraction at 20 uM in intact endothelium. In kind it is functional, tissue-based.

T1 sequence (Q07343 whole entry): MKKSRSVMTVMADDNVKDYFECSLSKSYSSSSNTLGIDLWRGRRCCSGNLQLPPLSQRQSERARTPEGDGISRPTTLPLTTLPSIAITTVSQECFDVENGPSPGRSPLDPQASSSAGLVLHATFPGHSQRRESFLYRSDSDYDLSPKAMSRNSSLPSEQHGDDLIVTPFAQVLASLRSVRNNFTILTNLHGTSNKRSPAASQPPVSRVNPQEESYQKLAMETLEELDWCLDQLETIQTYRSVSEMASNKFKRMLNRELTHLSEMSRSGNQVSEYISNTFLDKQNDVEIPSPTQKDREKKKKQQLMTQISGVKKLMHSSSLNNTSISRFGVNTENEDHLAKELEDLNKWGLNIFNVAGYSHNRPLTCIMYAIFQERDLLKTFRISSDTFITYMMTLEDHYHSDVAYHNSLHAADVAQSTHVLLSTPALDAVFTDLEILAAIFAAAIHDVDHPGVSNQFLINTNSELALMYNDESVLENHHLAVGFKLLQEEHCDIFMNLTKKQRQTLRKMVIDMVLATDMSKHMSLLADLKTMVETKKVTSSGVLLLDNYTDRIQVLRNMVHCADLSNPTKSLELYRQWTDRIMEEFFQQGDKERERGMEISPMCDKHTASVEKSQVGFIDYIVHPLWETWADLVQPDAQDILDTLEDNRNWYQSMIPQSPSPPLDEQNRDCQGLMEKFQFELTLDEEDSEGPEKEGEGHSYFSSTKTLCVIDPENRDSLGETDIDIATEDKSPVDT
Chain of cGMP-dependent 3',5'-cyclic phosphodiesterase (Homo sapiens) (O00408 whole entry): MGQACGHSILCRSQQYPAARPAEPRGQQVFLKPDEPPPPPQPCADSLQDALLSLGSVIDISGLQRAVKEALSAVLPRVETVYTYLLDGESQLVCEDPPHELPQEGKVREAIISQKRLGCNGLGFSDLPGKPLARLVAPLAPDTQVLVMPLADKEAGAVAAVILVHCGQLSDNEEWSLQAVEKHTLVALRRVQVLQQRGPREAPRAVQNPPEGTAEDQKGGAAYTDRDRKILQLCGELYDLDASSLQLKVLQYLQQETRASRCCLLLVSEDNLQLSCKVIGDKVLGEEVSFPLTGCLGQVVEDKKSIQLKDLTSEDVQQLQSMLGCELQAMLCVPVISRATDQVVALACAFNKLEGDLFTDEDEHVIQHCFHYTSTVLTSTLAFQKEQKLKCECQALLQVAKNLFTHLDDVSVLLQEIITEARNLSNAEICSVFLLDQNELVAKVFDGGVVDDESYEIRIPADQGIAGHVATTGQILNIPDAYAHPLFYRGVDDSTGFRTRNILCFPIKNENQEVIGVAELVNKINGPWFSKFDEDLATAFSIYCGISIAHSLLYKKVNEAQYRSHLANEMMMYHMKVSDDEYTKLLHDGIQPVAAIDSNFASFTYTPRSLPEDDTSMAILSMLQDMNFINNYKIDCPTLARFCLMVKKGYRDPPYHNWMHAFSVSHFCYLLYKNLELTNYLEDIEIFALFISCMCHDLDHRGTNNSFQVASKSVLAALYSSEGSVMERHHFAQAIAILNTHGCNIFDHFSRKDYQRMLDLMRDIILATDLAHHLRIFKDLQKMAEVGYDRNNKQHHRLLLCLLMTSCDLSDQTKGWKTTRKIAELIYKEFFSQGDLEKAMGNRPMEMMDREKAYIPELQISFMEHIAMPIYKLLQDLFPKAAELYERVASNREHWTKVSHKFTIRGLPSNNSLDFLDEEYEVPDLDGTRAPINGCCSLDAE

For `O=C(N/N=C/c1ccc[nH]1)c1ccc2c(c1)OCO2`, the inhibition at 200 µM in the test on Aorta [1] and in the test with Aorta [2] was under 50% throughout.

On to `CN(/N=C/c1ccco1)C(=O)c1ccc2c(c1)OCO2`, for which the IC50 with Aorta [3] is 40.8 µM; in the test on Aorta [4], 15.7 µM.

As to `O=C(N/N=C/c1cccs1)c1ccc2c(c1)OCO2`, the outcome in [5], in test [6] and in test [7] was inactive. In addition, in the test with Aorta [3], the Activity entry is “Dose-dependent effect”. Moreover, in the test on Aorta [3], the IC50 was found to be 74 µM. The inhibition at 100 µM in the test with Aorta [8] was under 50%.

Take `CN(/N=C/c1ccc[nH]1)C(=O)c1ccc2c(c1)OCO2`: the results for the IC50 in the test with Aorta [3] and in the test with Aorta [4] were 3.1 µM and 17.8 µM, respectively.

`O=C(N/N=C/c1ccco1)c1ccc2c(c1)OCO2`: the inhibition at 500 µM with Aorta [9] and in the test with Aorta [10] was under 50% each time.

`CN(/N=C/c1cccs1)C(=O)c1ccc2c(c1)OCO2`: the IC50 in test [11] is over 30 µM; with Aorta [3], 10.2 µM; with Aorta [4], 18.5 µM. Moreover, the outcome in test [5] and in test [7] was inactive. Also, the Activity result with Aorta [3] was “Dose-dependent effect”.

As to `CN(/N=C/c1ccccc1)C(=O)c1ccc2c(c1)OCO2`, in the test on Aorta [12], the result was Active. Further, the concentration for half-maximal inhibition (IC50) in the test with Aorta [3] was determined as 3.5 µM; with Aorta [4], 11.1 µM.

As for `O=C(N/N=C/c1ccccc1)c1ccc2c(c1)OCO2`, the IC50 in the test with Aorta [3] worked out at 81 µM. The inhibition at 500 µM is 70.7% in the test on Aorta [9] and under 50% in the test with Aorta [10].

The term inhibition denotes the percentage by which the read-out fell short of the control. A word on the IC50: it is the concentration that inhibits the measured activity by half.

For the origin of these results see ChEMBL document CHEMBL1154071, “Studies towards the identification of putative bioactive conformation of potent vasodilator arylidene N-acylhydrazone derivatives” (Eur J Med Chem, 2009).
